In US20160122320A1, “USEFUL COMBINATIONS OF MONOBACTAM ANTIBIOTICS WITH BETA-LACTAMASE INHIBITORS” (Basilea Pharmaceutica AG, priority 2005, published 2016):
Structures can show the parent of a compound that is named as a salt.

How the values were obtained:
Assay in all cases: MIC, NCCLS broth microdilution
Format in all cases: cell-based
Enterobacter cloacae P99 = settings: for MIC of antibiotic at fixed inhibitor concentration (4 mg/L): MIC of antibiotic compound 1 with the labelled bridged monobactam of formula II and clavulanate, 4 mg/L each; for MIC of antibiotic: antibiotic alone, no inhibitor
[1] = test system: Klebsiella pneumoniae CF104; settings: for MIC of antibiotic at fixed inhibitor concentration (4 mg/L): MIC of antibiotic compound 1 with the labelled bridged monobactam of formula II and clavulanate, 4 mg/L each; for MIC of antibiotic: antibiotic alone, no inhibitor
[2] = test system: Stenotrophomonas malthophilia 1AC736; settings: for MIC of antibiotic at fixed inhibitor concentration (4 mg/L): Stenotrophomonas malthophilia 1AC736, MIC of antibiotic compound 1 with the labelled bridged monobactam of formula II and clavulanate, 4 mg/L each; for MIC of antibiotic / MIC of antibiotic at fixed inhibitor concentration of 4 mg/L: Stenotrophomonas maltophilia 1AC736; for MIC of antibiotic: antibiotic alone, no inhibitor
[3] = test system: Pseudomonas aeruginosa MK1184; settings: for MIC of antibiotic at fixed inhibitor concentration (4 mg/L): MIC of antibiotic compound 1 with the labelled bridged monobactam of formula II and clavulanate, 4 mg/L each; for MIC of antibiotic: antibiotic alone, no inhibitor
[4] = test system: Pseudomonas aeruginosa 1973E; settings: for MIC of antibiotic at fixed inhibitor concentration (4 mg/L): MIC of antibiotic compound 1 with the labelled bridged monobactam of formula II and clavulanate, 4 mg/L each; for MIC of antibiotic: antibiotic alone, no inhibitor
Procedure: Antimicrobial activity of the compounds and of their combinations was determined against a selection of organisms according to the standard procedures described by the National Committee for Clinical Laboratory Standards (National Committee for Clinical Laboratory. Standards (2000). Methods for Dilution Antimicrobial Susceptibility Tests for Bacteria That Grow Aerobically-Fifth Edition: Approved Standard M7-A5. NCCLS, Wayne, Pa., USA).
In all cases the final concentration of DMSO incubated with the bacteria is less than or equal to 1%. […] Plates were incubated overnight at an appropriate temperature (30° C. or 37° C.) and optical densities assessed by eye. The MIC value is defined as the lowest compound concentration completely inhibiting visible growth of the test organism. When combinations between compounds of formula I with compounds of formula II and are evaluated the compounds of formula I are tested in dilution series as described above while the compounds of formula II and III-XIII were present in all wells at a constant concentration of 4 μg/mL each.

Acinetobacter sp. J2 = settings: for MIC of antibiotic at fixed inhibitor concentration (4 mg/L): Acinetobacter sp. J2, MIC of antibiotic compound 1 with the labelled bridged monobactam of formula II and clavulanate, 4 mg/L each; for MIC of antibiotic / MIC of antibiotic at fixed inhibitor concentration of 4 mg/L: Acinetobacter baumannii J2; for MIC of antibiotic: antibiotic alone, no inhibitor
Serratia marcescens S6 = settings: for MIC of antibiotic at fixed inhibitor concentration (4 mg/L): MIC of antibiotic compound 1 with the labelled bridged monobactam of formula II and clavulanate, 4 mg/L each; for MIC of antibiotic: antibiotic alone, no inhibitor

SMILES	MIC of antibiotic at fixed inhibitor concentration (4 mg/L) (Enterobacter cloacae P99)	MIC of antibiotic at fixed inhibitor concentration (4 mg/L) [1]	MIC of antibiotic at fixed inhibitor concentration (4 mg/L) [2]	MIC of antibiotic at fixed inhibitor concentration (4 mg/L) [3]	MIC of antibiotic at fixed inhibitor concentration (4 mg/L) [4]	MIC of antibiotic at fixed inhibitor concentration (4 mg/L) (Acinetobacter sp. J2)	MIC of antibiotic at fixed inhibitor concentration (4 mg/L) (Serratia marcescens S6)	MIC of antibiotic (Enterobacter cloacae P99)	MIC of antibiotic at fixed inhibitor concentration of 4 mg/L (Enterobacter cloacae P99; with 102 and clavulanate)	MIC of antibiotic [1]	MIC of antibiotic at fixed inhibitor concentration of 4 mg/L ([1]; with 102 and clavulanate)	MIC of antibiotic [2]	MIC of antibiotic at fixed inhibitor concentration of 4 mg/L ([2]; with 102 and clavulanate)	MIC of antibiotic [3]	MIC of antibiotic at fixed inhibitor concentration of 4 mg/L ([3]; with 102 and clavulanate)	MIC of antibiotic [4]	MIC of antibiotic at fixed inhibitor concentration of 4 mg/L ([4]; with 102 and clavulanate)	MIC of antibiotic (Acinetobacter sp. J2)	MIC of antibiotic at fixed inhibitor concentration of 4 mg/L (Acinetobacter sp. J2; with 102 and clavulanate)	MIC of antibiotic (Serratia marcescens S6)	also measured
CN(C)CCNC(=O)c1ccc(NC(=O)N2CC[C@@H]3[C@H]2C(=O)N3S(=O)(=O)[O-])cc1.[Na+] [Compound 310, Sodium(1S,5R)-2-[N-(4-{N-[2-(dimethylamino)ethyl]carbamoyl}phenyl)carbamoyl]-7-oxo-2,6-diazabicyclo[3.2.0]heptane-6-sulfonate]	4 µg/mL	2 µg/mL	0.125 µg/mL	16 µg/mL	4 µg/mL	>32 µg/mL	0.5 µg/mL	–	–	–	–	–	–	–	–	–	–	–	–	–	–
O=C(Nc1ccccc1)N1CC[C@@H]2[C@H]1C(=O)N2S(=O)(=O)[O-].[Na+] [Compound 301]	16 µg/mL	1 µg/mL	0.125 µg/mL	>32 µg/mL	4 µg/mL	8 µg/mL	0.25 µg/mL	–	–	–	–	–	–	–	–	–	–	–	–	–	–
CCC(=O)c1cc[n+](CC(=O)N2CC[C@@H]3[C@H]2C(=O)N3S(=O)(=O)[O-])cc1 [Compound 117, (1S,5R)-7-oxo-2-[2-(4-propanoylpyridinium)acetyl]-2,6-diazabicyclo[3.2.0]heptane-6-sulfonate, inner salt]	32 µg/mL	0.125 µg/mL	0.25 µg/mL	16 µg/mL	4 µg/mL	>32 µg/mL	0.25 µg/mL	–	–	–	–	–	–	–	–	–	–	–	–	–	–
NC(=S)c1cc[n+](CC(=O)N2CC[C@@H]3[C@H]2C(=O)N3S(=O)(=O)[O-])cc1 [Compound 118, (1S,5R)-2-{2-[4-(aminothioxomethyl)pyridinium]acetyl}-7-oxo-2,6-diazabicyclo[3.2.0]heptane-6-sulfonate, inner salt]	32 µg/mL	0.125 µg/mL	0.125 µg/mL	32 µg/mL	4 µg/mL	>32 µg/mL	0.25 µg/mL	–	–	–	–	–	–	–	–	–	–	–	–	–	–
NC(=O)OCC1C(NC(=O)C(=NOCc2cc(=O)c(O)cn2O)c2csc(N)n2)C(=O)N1OCC(=O)O (centres unmarked) [Compound 41]	–	–	–	–	–	–	–	>32 µg/mL	16 µg/mL	>32 µg/mL	0.5 µg/mL	1 µg/mL	2 µg/mL	4 µg/mL	4 µg/mL	4 µg/mL	4 µg/mL	16 µg/mL	16 µg/mL	1 µg/mL	MIC of antibiotic at fixed inhibitor concentration of 4 mg/L (Enterobacter cloacae P99; with 324 and clavulanate): 16 µg/mL; MIC of antibiotic at fixed inhibitor concentration of 4 mg/L ([1]; with 324 and clavulanate): 0.5 µg/mL; MIC of antibiotic at fixed inhibitor concentration of 4 mg/L ([2]; with 324 and clavulanate): 1 µg/mL; MIC of antibiotic at fixed inhibitor concentration of 4 mg/L ([3]; with 324 and clavulanate): 4 µg/mL; MIC of antibiotic at fixed inhibitor concentration of 4 mg/L ([4]; with 324 and clavulanate): 8 µg/mL; MIC of antibiotic at fixed inhibitor concentration of 4 mg/L (Acinetobacter sp. J2; with 324 and clavulanate): 4 µg/mL; MIC of antibiotic at fixed inhibitor concentration of 4 mg/L (Serratia marcescens S6; with 102 and clavulanate): 0.5 µg/mL; MIC of antibiotic at fixed inhibitor concentration of 4 mg/L (Serratia marcescens S6; with 324 and clavulanate): 0.5 µg/mL
O=C(C[n+]1ccccc1)Nc1ccc(SCC(=O)N2CC[C@@H]3[C@H]2C(=O)N3S(=O)(=O)[O-])cc1 [Compound 204, (1S,5R)-7-oxo-2-{2-[4-(2-pyridiniumacetylamino)phenylthio]acetyl}-2,6-diazabicyclo[3.2.0]heptane-6-sulfonate, inner salt]	8 µg/mL	2 µg/mL	8 µg/mL	32 µg/mL	4 µg/mL	2 µg/mL	0.25 µg/mL	–	–	–	–	–	–	–	–	–	–	–	–	–	–
Nc1nc(C(=NOCc2cc(=O)c(O)cn2O)C(=O)NC2CN(S(=O)(=O)O)C2=O)cs1 (centres unmarked) [Compound 9]	–	–	–	–	–	–	–	>32 µg/mL	32 µg/mL	>32 µg/mL	0.5 µg/mL	0.5 µg/mL	0.25 µg/mL	>32 µg/mL	4 µg/mL	8 µg/mL	8 µg/mL	>32 µg/mL	>32 µg/mL	16 µg/mL	MIC of antibiotic at fixed inhibitor concentration of 4 mg/L (Serratia marcescens S6; with 102 and clavulanate): 1 µg/mL
Nc1ccc[n+](CC(=O)N2CC[C@@H]3[C@H]2C(=O)N3S(=O)(=O)[O-])c1 [Compound 107, (1S,5R)-2-[2-(3-aminopyridinium)acetyl]-7-oxo-2,6-diazabicyclo[3.2.0]heptane-6-sulfonate, inner salt]	32 µg/mL	1 µg/mL	0.125 µg/mL	8 µg/mL	4 µg/mL	8 µg/mL	0.125 µg/mL	–	–	–	–	–	–	–	–	–	–	–	–	–	–
Nc1cc[n+](CC(=O)N2CC[C@@H]3[C@H]2C(=O)N3S(=O)(=O)[O-])cc1 [Compound 103, (1S,5R)-2-[2-(4-aminopyridinium)acetyl]-7-oxo-2,6-diazabicyclo[3.2.0]heptane-6-sulfonate, inner salt]	32 µg/mL	0.5 µg/mL	0.125 µg/mL	8 µg/mL	4 µg/mL	8 µg/mL	0.25 µg/mL	–	–	–	–	–	–	–	–	–	–	–	–	–	–
CC1(C)C(NC(=O)C(=NOCc2cc(=O)c(O)cn2O)c2csc(N)n2)C(=O)N1OCC(=O)O (centres unmarked) [Compound 33]	–	–	–	–	–	–	–	32 µg/mL	4 µg/mL	2 µg/mL	0.5 µg/mL	2 µg/mL	2 µg/mL	32 µg/mL	16 µg/mL	32 µg/mL	16 µg/mL	>32 µg/mL	16 µg/mL	0.5 µg/mL	MIC of antibiotic at fixed inhibitor concentration of 4 mg/L (Enterobacter cloacae P99; with 324 and clavulanate): 16 µg/mL; MIC of antibiotic at fixed inhibitor concentration of 4 mg/L ([1]; with 324 and clavulanate): 0.5 µg/mL; MIC of antibiotic at fixed inhibitor concentration of 4 mg/L ([2]; with 324 and clavulanate): 2 µg/mL; MIC of antibiotic at fixed inhibitor concentration of 4 mg/L ([3]; with 324 and clavulanate): 32 µg/mL; MIC of antibiotic at fixed inhibitor concentration of 4 mg/L ([4]; with 324 and clavulanate): 16 µg/mL; MIC of antibiotic at fixed inhibitor concentration of 4 mg/L (Acinetobacter sp. J2; with 324 and clavulanate): 8 µg/mL; MIC of antibiotic at fixed inhibitor concentration of 4 mg/L (Serratia marcescens S6; with 102 and clavulanate): 0.25 µg/mL; MIC of antibiotic at fixed inhibitor concentration of 4 mg/L (Serratia marcescens S6; with 324 and clavulanate): 0.25 µg/mL
CC1C(NC(=O)C(=NOCc2cc(=O)c(O)cn2O)c2noc(N)n2)C(=O)N1S(=O)(=O)O (centres unmarked) [Compound 16]	–	–	–	–	–	–	–	>32 µg/mL	>32 µg/mL	>32 µg/mL	32 µg/mL	>32 µg/mL	2 µg/mL	>32 µg/mL	16 µg/mL	>32 µg/mL	16 µg/mL	>32 µg/mL	16 µg/mL	>32 µg/mL	MIC of antibiotic at fixed inhibitor concentration of 4 mg/L (Serratia marcescens S6; with 102 and clavulanate): >32 µg/mL
